Laboratory results from US20220315578A1, “BRD9 BIFUNCTIONAL DEGRADERS AND THEIR METHODS OF USE” (NOVARTIS AG, priority 2019, published 2022).

Biological target: T1, BRD9-GFP (Homo sapiens, UniProt Q9H8M2)
T1 construct: CHYSEL (2A cis-acting hydrolase element) remnant after GFP; mCherry is split off as a separate protein (C); expressed in transfected cells; host or cells: HEK293A cells (Invitrogen R70507), lentiviral transduction with pLenti6-BRD9-GFP-CHYSEL-mCherry, blasticidin selection
T1 sequence (Q9H8M2 1-597): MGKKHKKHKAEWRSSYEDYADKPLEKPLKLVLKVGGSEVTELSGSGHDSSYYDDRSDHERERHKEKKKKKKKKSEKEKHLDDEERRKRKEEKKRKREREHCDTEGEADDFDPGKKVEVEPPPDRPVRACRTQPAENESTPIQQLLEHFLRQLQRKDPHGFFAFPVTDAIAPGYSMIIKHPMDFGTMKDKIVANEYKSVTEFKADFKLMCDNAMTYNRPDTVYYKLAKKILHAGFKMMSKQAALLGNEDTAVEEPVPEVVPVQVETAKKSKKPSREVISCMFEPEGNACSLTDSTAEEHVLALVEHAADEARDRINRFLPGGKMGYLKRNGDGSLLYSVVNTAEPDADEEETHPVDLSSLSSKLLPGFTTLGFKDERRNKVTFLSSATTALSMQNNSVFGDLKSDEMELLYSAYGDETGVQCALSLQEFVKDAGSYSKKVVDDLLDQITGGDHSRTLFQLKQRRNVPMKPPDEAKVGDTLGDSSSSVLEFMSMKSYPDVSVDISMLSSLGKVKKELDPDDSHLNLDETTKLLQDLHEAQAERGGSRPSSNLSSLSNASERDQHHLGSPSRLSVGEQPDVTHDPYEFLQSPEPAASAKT
Assay: BRD9-GFP protein abundance flow cytometry assay in HEK293A cells
Assay type: cell-based
Conditions: HEK293A-BRD9-GFP-CHYSEL-mCherry cells; for BRD9 Deg Amax %: 24 h, % protein remaining at the concentration at which maximum degradation is seen; for DC50: 24 h at 37° C., 10-point 1:3 dilution, concentration at which 50% maximal degradation was observed
How it was run: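 HEK293A cells stably express bicistronic BRD9-GFP-CHYSEL-mCherry and received 24 h treatment at 37° C with a 10-point, 3-fold dilution series from […], in 0.1% DMSO and duplicate. Median GFP/mCherry ratio of 5,000 single cells by flow cytometry, normalized to mCherry-only cells (0%) and DMSO (100%), gave DC50 and Amax (% protein remaining).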

BRD9 Deg Amax % [%] | DC50 [nM] | Compound
16.34 | 3 | CCCCn1cc(-c2cc(OC)c(CCN3CCC(OC4CCN(CCn5cccc(CN6CCC(=O)NC6=O)c5=O)CC4)CC3)c(OC)c2)c2ccncc2c1=O [Compound D4, 1-((1-(2-(4-((1-(4-(2-butyl-1-oxo-1,2-dihydro-2,7-naphthyridin-4-yl)-2,6-dimethoxyphenethyl)piperidin-4-yl)oxy)piperidin-1-yl)ethyl)-2-oxo-1,2-dihydropyridin-3-yl)methyl)dihydropyrimidine-2,4(1H,3H)-dione]
19.40 | 6 | Cn1cc(-c2cc(F)c(CN3CCC(OC4CCN(CCn5cccc(CN6CCC(=O)NC6=O)c5=O)CC4)CC3)cc2F)c2ccncc2c1=O [Compound E1, 1-((1-(2-(4-((1-(2,5-difluoro-4-(2-methyl-1-oxo-1,2-dihydro-2,7-naphthyridin-4-yl)benzyl)piperidin-4-yl)oxy)piperidin-1-yl)ethyl)-2-oxo-1,2-dihydropyridin-3-yl)methyl)dihydropyrimidine-2,4(1H,3H)-dione]
12.45 | 35 | COc1cc(-c2cn(C)c(=O)c3cnccc23)c(OC)cc1CN1CCC(O[C@@H]2CCN(CCn3cccc(CN4CCC(=O)NC4=O)c3=O)C[C@H]2F)CC1 [Compound E2, 1-((1-(2-((3R,4R)-4-((1-(2,5-dimethoxy-4-(2-methyl-1-oxo-1,2-dihydro-2,7-naphthyridin-4-yl)benzyl)piperidin-4-yl)oxy)-3-fluoropiperidin-1-yl)ethyl)-2-oxo-1,2-dihydropyridin-3-yl)methyl)dihydropyrimidine-2,4(1H,3H)-dione]
18.38 | 2 | CCCCn1cc(-c2ccc(O[C@H]3CC[C@@H](OC4CCN(C(=O)c5ccc(OC)c(N6CCC(=O)NC6=O)c5)CC4)CC3)cc2)c2ccncc2c1=O [Compound E3, 1-(5-(4-(((cis)-4-(4-(2-butyl-1-oxo-1,2-dihydro-2,7-naphthyridin-4 yl)phenoxy)cyclohexyl)oxy)piperidine-1-carbonyl)-2-methoxyphenyl)dihydropyrimidine-2,4(1H,3H)-dione]

Further lines, the molecule ahead of its results:

Compound | BRD9 Deg Amax % [%] | DC50 [nM]
CCCCn1cc(-c2cc(OC)c(CN3CCC(OC4CCN(CCn5cccc(CN6CCC(=O)NC6=O)c5=O)CC4)CC3)cc2OC)c2ccncc2c1=O [Compound D1, 1-((1-(2-(4-((1-(4-(2-butyl-1-oxo-1,2-dihydro-2,7-naphthyridin-4-yl)-2,5-dimethoxybenzyl)piperidin-4-yl)oxy)piperidin-1-yl)ethyl)-2-oxo-1,2-dihydropyridin-3-yl)methyl)dihydropyrimidine-2,4(1H,3H)-dione] | 14.78 | 16
CCCCn1cc(-c2cc(OC)c(CN3CCC(OC4CCN(CCn5cccc(CN6CCC(=O)NC6=O)c5=O)CC4)CC3)c(OC)c2)c2ccncc2c1=O [Compound D2, 1-((1-(2-(4-((1-(4-(2-butyl-1-oxo-1,2-dihydro-2,7-naphthyridin-4-yl)-2,6-dimethoxybenzyl)piperidin-4-yl)oxy)piperidin-1-yl)ethyl)-2-oxo-1,2-dihydropyridin-3-yl)methyl)dihydropyrimidine-2,4(1H,3H)-dione] | 13.05 | 15
CCCCn1cc(-c2cc(OC)c(CCN3CCC(OC4CCN(CCn5cccc(CN6CCC(=O)NC6=O)c5=O)CC4)CC3)cc2OC)c2ccncc2c1=O [Compound D3, 1-((1-(2-(4-((1-(4-(2-butyl-1-oxo-1,2-dihydro-2,7-naphthyridin-4-yl)-2,5-dimethoxyphenethyl)piperidin-4-yl)oxy)piperidin-1-yl)ethyl)-2-oxo-1,2-dihydropyridin-3-yl)methyl)dihydropyrimidine-2,4(1H,3H)-dione] | 17.62 | 47
